From ChEMBL document CHEMBL1287708, “Synthesis, biological evaluation and radiolabelling by 18F-fluoroarylation of a dopamine D3-selective ligand as prospective imaging probe for PET” (Bioorg Med Chem Lett, 2010)
pEC50, pKi: −log10 of the molar value.

Key:
[1] = Lipophilicity, log D of the compound in n-octanol-phosphate buffered saline at pH 7.4; format: physicochemical
Cortex [2] = assay: Drug uptake in Sprague-Dawley rat cortex at 9.3 MBq, iv measured after 45 mins by autoradiography in presence of 1 mg/kg BP897; format: ADME, organism-based; design: dose 1 mg/kg, route intravenous; settings: in vivo, 0.75 h
[3] = tested on: brain ventricle (Rattus norvegicus); assay: Drug uptake in Sprague-Dawley rat brain ventricle at 8.5 MBq, iv measured after 45 mins by autoradiography; settings: in vivo, 0.75 h
[4] = tested on: brain ventricle (Rattus norvegicus); assay: Drug uptake in Sprague-Dawley rat brain ventricle at 9.3 MBq, iv measured after 45 mins by autoradiography in presence of 1 mg/kg BP897; settings: in vivo, 0.75 h
Striatum [5] = assay: Drug uptake in Sprague-Dawley rat striatum at 8.5 MBq, iv measured after 45 mins by autoradiography; format: ADME, organism-based; settings: in vivo, 0.75 h
Cortex [6] = assay: Drug uptake in Sprague-Dawley rat cortex at 8.5 MBq, iv measured after 45 mins by autoradiography; format: ADME, organism-based; settings: in vivo, 0.75 h
Striatum [7] = assay: Drug uptake in Sprague-Dawley rat striatum at 9.3 MBq, iv measured after 45 mins by autoradiography in presence of 1 mg/kg BP897; format: ADME, organism-based; design: dose 1 mg/kg, route intravenous; settings: in vivo, 0.75 h
D(2) dopamine receptor [8] = biological target: T1, D(2) dopamine receptor (Homo sapiens, UniProt P14416); assay: Displacement of [3H]spiperone from human dopamine D2long receptor expressed in CHO cells; format: cell-based
D(1A) dopamine receptor = D(1A) dopamine receptor (Sus scrofa, UniProt P50130); assay: Displacement of [3H][…] from dopamine D1 receptor in porcine cerebral cortex membranes; format: cell membranes, Membrane
[9] = biological target: 5-hydroxytryptamine receptor 2A (Sus scrofa, UniProt P50129); assay: Displacement of [3H]ketanserin from 5-HT2 receptor in porcine cerebral cortex membranes; format: cell membranes, Membrane
D(3) dopamine receptor [10] = biological target: T2, D(3) dopamine receptor (Homo sapiens, UniProt P35462); assay: biochemical
Description: Displacement of [3H]spiperone from human dopamine D3 receptor expressed in CHO cells

D(3) dopamine receptor [11] = biological target: T2, D(3) dopamine receptor; assay: Agonist activity at human dopamine D3 receptor expressed in CHO dhfr-negative cells assessed as stimulation of [3H]-thymidine incorporation; format: functional, cell-based
[12] = Displacement of [3H]prazosin from alpha1 adrenoceptor in porcine cerebral cortex membranes; format: cell membranes, Sus scrofa, Membrane
[13] = Displacement of [3H][…] from 5-HT1A receptor in porcine cerebral cortex membranes; format: cell membranes, Sus scrofa, Membrane
D(4) dopamine receptor = biological target: T3, D(4) dopamine receptor (Homo sapiens, UniProt P21917); assay: Displacement of [3H]spiperone from human dopamine D4.4 receptor expressed in CHO cells; format: cell-based
T3 sequence (P21917 whole entry): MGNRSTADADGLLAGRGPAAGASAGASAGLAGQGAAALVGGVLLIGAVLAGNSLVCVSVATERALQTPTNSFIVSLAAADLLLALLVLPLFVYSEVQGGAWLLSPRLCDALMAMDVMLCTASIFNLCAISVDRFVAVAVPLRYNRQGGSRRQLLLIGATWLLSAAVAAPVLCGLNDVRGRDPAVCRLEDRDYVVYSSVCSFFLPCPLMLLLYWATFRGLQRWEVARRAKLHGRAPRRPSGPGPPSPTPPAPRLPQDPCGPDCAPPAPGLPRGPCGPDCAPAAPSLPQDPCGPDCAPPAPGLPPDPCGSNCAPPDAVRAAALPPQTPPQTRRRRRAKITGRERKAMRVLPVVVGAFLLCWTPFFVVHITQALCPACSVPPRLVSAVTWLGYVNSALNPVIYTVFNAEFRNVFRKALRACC

D(2) dopamine receptor [14] = biological target: T1, D(2) dopamine receptor; assay: Agonist activity at human dopamine receptor D2long expressed in CHO10001 cells assessed as stimulation of incorporation [3H]-thymidine incorporation; format: functional, cell-based

T2 sequence (P35462 whole entry): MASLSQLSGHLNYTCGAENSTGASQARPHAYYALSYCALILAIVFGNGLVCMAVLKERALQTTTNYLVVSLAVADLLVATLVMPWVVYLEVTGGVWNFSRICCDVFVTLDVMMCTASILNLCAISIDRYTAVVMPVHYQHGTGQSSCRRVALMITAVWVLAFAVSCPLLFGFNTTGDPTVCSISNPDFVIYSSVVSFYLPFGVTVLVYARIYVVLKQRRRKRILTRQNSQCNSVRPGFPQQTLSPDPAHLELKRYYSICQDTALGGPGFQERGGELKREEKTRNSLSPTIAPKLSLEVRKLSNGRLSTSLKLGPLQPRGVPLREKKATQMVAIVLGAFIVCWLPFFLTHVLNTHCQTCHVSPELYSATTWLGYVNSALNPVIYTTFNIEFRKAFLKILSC
D(1A) dopamine receptor, sequence (P50130 whole entry): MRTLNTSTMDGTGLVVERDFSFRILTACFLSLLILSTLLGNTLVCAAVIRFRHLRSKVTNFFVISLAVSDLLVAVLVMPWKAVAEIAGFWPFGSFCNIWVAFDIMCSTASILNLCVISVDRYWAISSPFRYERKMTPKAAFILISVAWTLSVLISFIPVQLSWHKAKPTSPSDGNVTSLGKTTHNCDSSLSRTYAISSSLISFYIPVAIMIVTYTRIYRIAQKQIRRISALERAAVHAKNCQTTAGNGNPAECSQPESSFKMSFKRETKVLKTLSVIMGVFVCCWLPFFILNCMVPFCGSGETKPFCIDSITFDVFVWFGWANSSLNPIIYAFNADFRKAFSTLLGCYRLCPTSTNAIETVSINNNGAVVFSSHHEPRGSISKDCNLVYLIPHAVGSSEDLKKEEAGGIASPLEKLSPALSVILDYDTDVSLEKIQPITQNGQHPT
5-hydroxytryptamine receptor 2A, sequence (P50129 whole entry): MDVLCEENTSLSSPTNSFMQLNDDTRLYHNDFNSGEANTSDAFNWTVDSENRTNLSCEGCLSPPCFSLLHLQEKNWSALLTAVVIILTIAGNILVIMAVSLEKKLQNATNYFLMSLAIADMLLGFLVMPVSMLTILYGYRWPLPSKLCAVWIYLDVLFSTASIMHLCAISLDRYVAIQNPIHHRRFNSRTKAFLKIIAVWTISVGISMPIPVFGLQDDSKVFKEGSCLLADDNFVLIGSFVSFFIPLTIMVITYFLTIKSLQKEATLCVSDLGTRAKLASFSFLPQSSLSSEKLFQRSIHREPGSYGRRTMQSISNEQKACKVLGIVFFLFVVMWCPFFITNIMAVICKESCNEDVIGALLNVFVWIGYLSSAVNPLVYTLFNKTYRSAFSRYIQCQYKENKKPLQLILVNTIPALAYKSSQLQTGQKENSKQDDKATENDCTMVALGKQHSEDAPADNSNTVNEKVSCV
T1 sequence (P14416 whole entry): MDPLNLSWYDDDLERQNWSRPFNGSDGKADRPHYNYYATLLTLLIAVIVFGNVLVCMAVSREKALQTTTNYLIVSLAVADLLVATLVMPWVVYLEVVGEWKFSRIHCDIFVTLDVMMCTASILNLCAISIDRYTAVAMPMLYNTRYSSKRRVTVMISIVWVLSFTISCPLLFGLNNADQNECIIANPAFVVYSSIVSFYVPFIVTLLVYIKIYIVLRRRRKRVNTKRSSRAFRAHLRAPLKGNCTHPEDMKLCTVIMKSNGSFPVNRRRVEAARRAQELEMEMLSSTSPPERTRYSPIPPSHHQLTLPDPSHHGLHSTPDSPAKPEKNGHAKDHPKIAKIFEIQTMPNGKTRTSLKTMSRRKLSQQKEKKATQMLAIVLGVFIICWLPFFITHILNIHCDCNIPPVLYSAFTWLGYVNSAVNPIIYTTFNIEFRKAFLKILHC

logD [1]	Drug uptake (Cortex [2]) [cpm/mm2]	Drug uptake [3] [cpm/mm2]	Drug uptake [4] [cpm/mm2]	Drug uptake (Striatum [5]) [cpm/mm2]	Drug uptake (Cortex [6]) [cpm/mm2]	Drug uptake (Striatum [7]) [cpm/mm2]	pKi (D(2) dopamine receptor [8])	pKi (D(1A) dopamine receptor)	pKi [9]	pKi (D(3) dopamine receptor [10])	pEC50 (D(3) dopamine receptor [11])	pKi [12]	pKi [13]	pKi (D(4) dopamine receptor)	pEC50 (D(2) dopamine receptor [14])	Compound
2.07	3120	38717	18275	28851	32293	3086	–	–	–	–	–	–	–	–	–	COc1ccccc1N1CCN(CCCCNC(=O)/C=C/c2ccc([18F])cc2)CC1
–	–	–	–	–	–	–	7.57	5.96	6.48	9.47	8.41	8.28	7.55	7.37	8.77	COc1ccccc1N1CCN(CCCCNC(=O)/C=C/c2ccc(F)cc2)CC1
–	–	–	–	–	–	–	–	6.57	6.60	9.29	–	8.10	7.00	6.77	–	N#[11C]c1cccc(N2CCN(CCN3CCC(C(F)(F)F)CC3)C2=O)c1
